Laboratory results published in the METLIN SMRT retention time set (Domingo-Almenara et al. 2019).

Assay: gradient 5% acetonitrile 3 min, to 50% in 2 min, to 85% in 15 min, held 3 min, 100 µL/min
Settings: column: Zorbax Extend-C18 2.1 x 50 mm; eluents: water / acetonitrile, 0.1% formic acid
Outline: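 Retention time was recorded from adduct peaks, which were picked computationally and each inspected manually. Pure standards ran in mixtures of ~100 molecules on HPLC coupled to a quadrupole time-of-flight mass spectrometer, in positive and negative ionization mode, through a Zorbax Extend-C18 column (2.1 × 50 mm, 1.8 μm) at 100 μL/min. Eluents were water and acetonitrile, each with 0.1% formic acid.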

Row | Compound | RP-LC retention time [s]
1 | C[C@H]1CC2C3CCC4=CC(=O)C=C[C@]4(C)[C@@]3(Cl)[C@@H](O)C[C@]2(C)[C@@]1(O)C(=O)CO (some centres undefined) | 832
2 | COCCCNC(=O)Cn1c(=O)n(-c2ccccc2)c2ncccc21 | 650
3 | Cc1sc(NC(=O)c2ccc(S(=O)(=O)N(C)C)cc2)nc1-c1ccc2c(c1)NC(=O)CO2 | 842
4 | C/C(=C\c1csc(C)n1)C1C[C@@H]2O[C@]2(C)CCC[C@H](C)[C@H](O)[C@@H](C)C(=O)C(C)(C)[C@@H](O)CC(=O)O1 (some centres undefined) | 901
5 | COc1ccc(N2CCN(C(=O)C3CCN(S(=O)(=O)c4cn(C)c(C)n4)CC3)CC2)cc1 | 651
6 | Cc1ccc(C)c(NC(=O)C2CCCN(S(=O)(=O)c3c[nH]c(C(=O)N4CCCCCC4)c3)C2)c1 (centres undefined) | 923
7 | Cc1ccc(N2C(=O)C3N=NN(Cc4nc(-c5ccc(Cl)cc5)no4)C3C2=O)cc1 (centres undefined) | 1070
8 | COc1cccc(N2CCN(C(=O)C3CCN(S(=O)(=O)c4cn(C)c(C)n4)CC3)CC2)c1 | 702
9 | Cc1ccc2nc(NC(=O)C3CC(=O)N(c4n[nH]c5ccccc45)C3)sc2c1 (centres undefined) | 787
10 | Cc1cc(C)n(-c2ccc(=O)n(CC(=O)NCc3ccc4c(c3)OCO4)n2)n1 | 668
11 | CC(=O)N1CCC(C(=O)NC2CCCN(c3cc(-c4ccc(Cl)cc4)[nH]n3)C2)CC1 (centres undefined) | 655
12 | Cc1noc(C)c1S(=O)(=O)N1CCC(C(=O)NCCc2csc(-c3cccs3)n2)CC1 | 858
13 | Cc1nn(C)c(C)c1CNC(=O)c1ccc2nc(Cc3ccccc3)oc2c1 | 714
14 | CCCn1ccc2sc(C)c(C(=O)NCc3ccc(C)o3)c2c1=O | 867
15 | O=C(NCC1CCCO1)c1ccc(NC(=O)C2CCC2)cc1N1CCCCC1 (centres undefined) | 617
16 | Cc1cnc(C(=O)N[C@@H]2CCC[C@@H]2C(=O)NC(C)C)cn1 | 582
17 | COc1ccccc1-c1noc(C2CCCN2C(=O)c2cc(F)ccc2F)n1 (centres undefined) | 968
18 | O=C(NCCc1ccccc1)N1[C@H]2CC[C@@H]1c1cncnc1C2 | 642
19 | O=C(Cn1c(=O)oc2ccccc21)N1CCC(c2noc(-c3cccnc3)n2)C1 (centres undefined) | 702
20 | COc1cccc(C2CC(c3ccc(Br)cc3)=NC3(CCN(C(C)=O)CC3)N2)c1O (centres undefined) | 694

Row | Compound | RP-LC retention time [s]
21 | CN(C)C[C@@H]1CN(c2ncccn2)C[C@H]1NC(=O)NCCc1ccccc1 | 600
22 | CN1C(=O)C(CC(=O)NC2CCCC2)Sc2ncccc21 (centres undefined) | 668
23 | CCCn1c(=O)sc2cc(S(=O)(=O)N3CCC(C(=O)Nc4ccc(C)cc4C)CC3)ccc21 | 997
24 | CCN1C(=O)C2CCC(=O)N2c2ccc(C(=O)NCc3ccco3)cc21 (centres undefined) | 674
25 | CCn1cc(C)c(C(=O)O)c1CC(=O)NCCCN1CCN(C)CC1 | 562
26 | Cc1ccc(=O)n(CC(=O)NCc2cccs2)n1 | 591
27 | COc1cc(NC(=O)N2c3ccccc3CC2c2nc(C3CC3)no2)cc(OC)c1 (centres undefined) | 1030
28 | O=C(NCc1ccccn1)c1ccc(NC(=O)C2CC2)cc1N1CCCCCC1 | 593
29 | Cc1nnc2cc(N3CCN(C(=O)Nc4cccc(Cl)c4)CC3)cnn12 | 596
30 | CCOC(=O)c1nc(NCCc2ccc(OCC)cc2)c2ccccc2n1 | 836
31 | O=S(=O)(Nc1cccn2c(C3CCC3)nnc12)c1cccc2cccnc12 | 749
32 | NC(=O)C1=C(N)c2ccccc2C1c1ccccc1 (centres undefined) | 822
33 | CCn1ccc(NC(=O)c2ccc(C)cc2C)n1 | 765
34 | CC1(C)CC(=O)c2c(O)cc(OCC(=O)O)cc2O1 | 738
35 | CCn1cc(-c2nc(CC(=O)NCc3cccc(C)c3)cs2)c2cccnc21 | 892
36 | CCOC(=O)c1nc(SC)n(C)c1C(=O)OCC | 834
37 | Cc1sc2ccn(CC(C)C)c(=O)c2c1C(=O)N1CCN(c2ccccn2)CC1 | 618
38 | Cc1ccc(NC(=O)C2CCN(C(=O)C3Sc4ccccc4NC3=O)CC2)cc1C (centres undefined) | 818
39 | CC(=O)N1c2ccc(S(=O)(=O)N3CCCCCC3)cc2CC1C(=O)NCCCc1ccccc1 (centres undefined) | 975
40 | O=C(Cn1c(C(=O)c2cccc(F)c2)nc2ccccc21)NCC1CCCO1 (centres undefined) | 805

Row | Compound | RP-LC retention time [s]
41 | CN1CCCn2nc(C3CCN(C(=O)CC(C)(C)C)CC3)cc2C1=O | 654
42 | Cc1ccc(-c2nc(N)n(C(=O)C(C)(C)C)n2)cc1 | 1080
43 | O=C(Cn1c(=O)cc(C(=O)N2CCCCC2)c2ccccc21)NC1CCCC1 | 697
44 | COC(=O)c1cccc(NC(=O)c2sc(-c3cn(C(C)C)c4ncccc34)nc2C)c1 | 1060
45 | Cc1nn(CC(=O)NCCN2CCCCC2C)c(=O)c2nc(-c3ccccc3)sc12 (centres undefined) | 645
46 | CCC(C)n1c(=O)c2ccccc2n(Cc2nc(-c3ccccc3)no2)c1=O (centres undefined) | 1190
47 | CSc1ccc(-c2nc3ncccn3c2Nc2cccc(Cl)c2C)cc1 | 968
48 | COc1cc(C)c(Cl)cc1S(=O)(=O)N1CCN(C(=O)c2ccco2)CC1 | 797
49 | Cc1cccc(NC(=O)N2CCCC2C(=O)NC2CC2)c1 (centres undefined) | 655
50 | O=C(NC1CCCCC1)c1ccc2c(c1)CCN2C(=O)C1CC1 | 824
51 | CCc1ccccc1NS(=O)(=O)c1cc(-c2cc(C(F)(F)F)on2)sc1C | 1210
52 | O=C(NCCC1=CCCCC1)C1CCN(c2ccncc2)CC1 | 638
53 | Cc1cc(C(=O)NC2CCCC2)c2cccc(Cl)c2n1 | 840
54 | O=C(Cn1c2ccccc2n2c(=O)cc(-c3ccc(F)cc3)nc12)NCc1ccco1 | 912
55 | O=C(NCCN1CCCC1)C1CCCN(c2ccc(Sc3ccc(Br)cc3)nn2)C1 (centres undefined) | 663
56 | Cc1nc(C)c(C(=O)NCC23CCC=C2N(C)C(=O)CC3)s1 (centres undefined) | 651
57 | CC(=O)Nc1ccc(OCC(O)CNC(C)(C)CC(C)(C)C)cc1 (centres undefined) | 562
58 | COCCNC(=O)C1(C)Cn2nc(-c3ccco3)cc2C(=O)N1c1ccc(OC)c(Cl)c1 (centres undefined) | 776

Now from value to compound:

Row | RP-LC retention time [s] | Compound
59 | 1120 | CC1CCN(c2cc3c(cc2NC(=O)COc2ccc(Cl)cc2)n(C)c(=O)c(=O)n3C)CC1
60 | 907 | O=C(Cc1cccc(C(F)(F)F)c1)Nc1cnn(-c2ncc(N3CCCC3)cn2)c1
61 | 637 | Cc1cc(-c2nnc(-c3ccc(F)cc3)o2)c(C)n1CC(=O)NCc1cccnc1
62 | 1070 | COc1c(C(=O)NCc2ccc3c(c2)OCO3)sc2ccc(Cl)cc12
63 | 695 | CCCNC(=O)C1CCCN(c2nc3ncn(CC(=O)NCc4ccc(F)cc4)c(=O)c3s2)C1 (centres undefined)
64 | 632 | CC1CC(=O)c2cnc(N3CCN(Cc4ccc5c(c4)OCO5)CC3)nc2C1 (centres undefined)
65 | 779 | CCN1C(=O)c2cccnc2Sc2cc(CNC(=O)c3sccc3C)ccc21
66 | 634 | CCCC(=O)Nc1ccc(-n2cnc(C(=O)NCC)c2)nc1
67 | 1060 | COc1cccc(-n2cc(C(=O)OCC(=O)OC(C)C)c3ccccc3c2=O)c1
68 | 559 | CCn1cc(-c2ccncc2)cc1C(=O)NCc1ccc(N(C)C)cc1
69 | 555 | O=C(CCc1nc2ccccc2[nH]1)NCC1CCOCC1
70 | 658 | COc1ccc(NS(=O)(=O)c2cc(-c3[nH]ncc3C(=O)N(C)C)oc2C)cc1
71 | 758 | O=C(Cc1cccs1)NC1CCCN(c2cc(-c3ccccc3)[nH]n2)C1 (centres undefined)
72 | 547 | CC(=O)N1C[C@@H]2CCCN3CCC[C@@H]([C@H]23)[C@H]1CCCC(=O)NCCCN(C)C1CCCCC1
73 | 1290 | c1cc(-c2nc(-c3ccc(-c4csc(C5CC5)n4)cc3)no2)ccn1
74 | 729 | O=C(NC1CCCCCC1)c1cccc(Cn2cncn2)c1

Row | RP-LC retention time [s] | Compound
75 | 957 | Cc1ccc(S(=O)(=O)n2nc(-c3cccc(C)c3)nc2N)cc1
76 | 1350 | Cc1ccc(-c2coc(-c3ccc(NS(=O)(=O)c4ccc(Cl)s4)cc3)n2)c(C)c1
77 | 1160 | Cc1ccccc1NS(=O)(=O)c1cccc(-c2nc(-c3ccccc3)no2)c1
78 | 907 | Cc1nc(CSc2cc(-c3ccccc3)ncn2)cs1
79 | 656 | O=C(NCCC1=CCCCC1)C1CCN(c2cncnc2N2CCOCC2)CC1
80 | 1030 | COc1ccccc1N1CCN(c2cc(SCC(=O)Nc3cccc(C)c3C)ncn2)CC1
81 | 658 | Cc1cc(-c2cc(S(=O)(=O)N(CCN(C)C)Cc3cccs3)c(C)s2)n[nH]1
82 | 760 | COC(=O)c1cc2c(=O)n(Cc3ccc(OC)c(OC)c3)ccc2nc1C
83 | 783 | CNC(=O)N1CCC(N2C(=O)C3(CCCCC3)C2c2ccccc2)CC1 (centres undefined)
84 | 657 | COCCNS(=O)(=O)c1cc2c(cc1C)CCN2C(C)=O
85 | 883 | CC(C)c1ccc(NC(=O)C2CCN(S(=O)(=O)c3ccc4c(c3)CCCC(=O)N4)CC2)cc1
86 | 575 | O=C(NCCc1nnc2ccc(SCc3ccccn3)nn12)c1ccccc1
87 | 632 | Cc1cc(N2CCN(C)CC2)nc2ccc(NC(=S)NC3CCCc4ccccc43)cc12 (centres undefined)
88 | 853 | Cc1csc(NC(=O)CN2C(=O)C3CCCCN3c3ccc(S(=O)(=O)N(C)C)cc32)n1 (centres undefined)
89 | 782 | CSc1ccc(NC(=O)Nc2cc(C)ccn2)cc1
